Each structure is given as a SMILES string.

As a reminder, the melting point is the temperature of the solid-liquid transition. In the case of `CCOC(=O)C(C)(CCC1=C(C)C(=O)c2ccccc2C1=O)C(=O)OCC`, the melting point is 96 °C.
